Results from patent publication US9522198B2, “Methods and compositions related to targeting tumors and wounds” (Sanford-Burnham Medical Research Institute, priority 2006, dated 2016).
“Also recorded” adds a separate entry of the source. Where two headings read alike, the source gives them in different places. Ends that are not written are not given here.

What was measured:
[1] = test system: human clinical breast cancers; test: Peptide overlay assay on frozen tumor sections; type: binding; details: two clinical breast cancers
Description: (§1) B16F1 mouse melanoma, Lewis lung carcinoma, C8161 human melanoma, MDA-MB-435 human breast cancer, and PPC-1 human prostate cancer cells (American Type Culture Collection) were maintained in RPMI or DMEM supplemented with 10% FCS. Human tumor cells (1×10^6) were injected into the mammary fat pad or the flank of nude BALB/c nu/nu mice to induce tumors. MMTV PyMT mice were provided by Dr. Robert Oshima (Burnham Institute for Medical Research, La Jolla, Calif.). The MMTV PyMT mice develop breast cancer under the influence of a polyoma middle T antigen driven by the mouse tumor virus promoter (Siegel, P. M., Ryan, E. D., Cardiff, R. D., Muller W. J. (1999) EMBO J., 18, 2149-64). […]
(§2) The mice were perfused through the heart 3 hours after the peptide injection and tissues removed for examination. […] Tissue fluorescence was quantified using Image-Pro Plus software. At least two images from representative microscopic fields were analyzed from each tissue sample and data from individual mice that received the same treatment (n=2-8) were pooled.

fibrin(ogen) = test: Co-localization of injected peptide with fibrin staining in tumor sections; type: in vivo, mouse; details: MDA-MB-435 xenograft sections, i.v. injected peptide
Description: The mice were perfused through the heart 3 hours after the peptide injection and tissues removed for examination. For fibrin and fibronectin immunostaining, tissues were fixed with 4% paraformaldehyde and stained with biotinylated mouse fibrin(ogen) antiserum (Nordic Immunological Laboratories) or a polyclonal anti-mouse fibronectin (Chemicon), followed by streptavidin Alexa 594 or anti-rabbit Alexa 594 (Molecular Probes), respectively. For peptide overlay, sections of frozen OCT embedded tissue were incubated with 10 μg/ml fluorescein-conjugated peptide for 30 min at room temperature. Tissue fluorescence was quantified using Image-Pro Plus software. At least two images from representative microscopic fields were analyzed from each tissue sample and data from individual mice that received the same treatment (n=2-8) were pooled.

B16F1 tumors = test: Homing to B16F1 tumors in wild type, fibrinogen knockout and plasma fibronectin-deficient mice; type: in vivo, mouse
From the text: Knockout mice were employed to study the role of fibrin(ogen) and fibronectin in the homing of the CLT peptides to tumors. Fibrinogen knockout mice are viable (Palumbo, J. S., Kombrinck, K. W., Drew, A. F., Grimes, T. S., Kiser, J. H. Jay L. Degen, J. L. & Bugge, T. H. (2000), Blood 96, 3302-3309) and were used as tumor recipients. Complete absence of fibronectin is lethal, but mice that lack plasma fibronectin can be generated by postnatally deleting the fibronectin gene in the liver (Sakai, T., Johnson, K. J., Murozono, M., Sakai, K., Magnuson, M. A., Wieloch, T., Cronberg, T., Isshiki, A., Erickson, H. P., & Fassler R. (2001) Nat. Med. 7, 324-30). The CLT peptides homed to B16F1 tumors grown in wild type C57BL/6 mice (n=10) producing a fibrillar meshwork (CLT1; FIG. 3D). In contrast, only faint, evenly distributed fluorescence was present in tumors (n=4) grown in the fibrinogen knockout mice (which lack the ability to produce fibrin) (FIG. 3E). […] Unlike in the fibrinogen knockout mice, there was no residual peptide binding to the tumors in the plasma fibronectin-deficient mice (FIG. 3H).
as §1, with “Calif.).” for “Calif.). The MMTV PyMT mice develop breast cancer under the influence of a polyoma middle T antigen driven by the mouse tumor virus promoter (Siegel, P. M., Ryan, E. D., Cardiff, R. D., Muller W. J. (1999) EMBO J., 18, 2149-64).”
as §2

[2] = test system: human umbilical venous endothelial cells (HUVECs); type: cell-based
From the text: CLT1 contains a sequence of three consecutive hydrophobic residues, LII (leucine-isoleucine-isoleucine). This motif is very similar to the VII sequence (V, valine) which causes proteins to form large insoluble aggregates (Esteras-Chopo et al. 2005). […] The ability of CLT1 to aggregate proteins correlates with its cytotoxicity for human umbilical venous endothelial cells (HUVECs).

## CGLIIQKNEC (also: cyclic, ring type not given here, fluorescein conjugate, site not given here) [CLT1, cyclic decapeptide from phage library screened on plasma clots; tested as fluorescein conjugate]
[1]
  overlay binding: positive
fibrin(ogen)
  co-localization of peptide fluorescence with fibrin staining: co-localized; also recorded: overlapping distribution
B16F1 tumors; plasma fibronectin-deficient mice
  homing to B16F1 tumors: negative
B16F1 tumors; wild type C57BL/6 mice
  homing to B16F1 tumors: produce a fluorescent meshwork
B16F1 tumors; wild type littermates of plasma fibronectin-deficient mice
  homing to B16F1 tumors: homes
[2]; HUVECs
  cytotoxicity for endothelial cells: cytotoxic for endothelial cells
[2]; confluent HUVECs, 150 μg/ml
  cell death: not in confluent HUVECs
[2]; proliferating HUVECs, 150 μg/ml in culture media, within 24 h
  cell death: induced cell death
